Reference: patent US12370167B2, “Blood-brain barrier permeability regulator and use thereof” (ZHEJIANG UNIVERSITY, priority 2019, dated 2025)

Tests used:
[1] = system: brain microvascular endothelial cells bEnd.3; test: FITC-dextran transport across physiological blood-brain barrier Transwell model; type: cell-based; conditions: SC79 0, 5, 10 μg/mL; 24 hours, then FITC-dextran 10 kDa for 4 hours
Experimental: FIG. 7: In vitro dose-dependent influence of SC79 on the efficiency of transportation of FITC-dextran cross the blood-brain barrier. A Transwell model of brain microvascular endothelial cells bEnd.3 was used to mimic the physiological blood-brain barrier. SC79 at different concentrations (0, 5 μg/mL, 10 μg/mL) was applied to the Transwell chamber. After 24 hours, the Transwell chamber and the outer chamber were washed with PBS. A solution of FITC-dextran in HBSS was added to the Transwell chamber for an action of 4 hours.
Brain microvascular endothelial cells bEnd.3 were used as model cells of a blood-brain barrier. 0.5 mL suspension of well-grown bEnd.3 cells was inoculated in the chamber of a 12-well Transwell plate with a pore size of 0.4 μm at a cell density of 1×10^5/well. 1.5 mL of fresh culture medium was supplemented in the outer chamber. The culture medium was refreshed every other day. Incubation was continued for 15 days at 37° C. and 5% CO2. […]
A protein kinase B activator SC79 at different concentrations ([…], 10 μg/mL) was added into the Transwell chamber in the model of physiological blood-brain barrier. […] After the cells were incubated at 37° C. in the dark for 4 hours, the concentration of FITC-dextran transferred to the outer chamber via the Transwell chamber was detected with a fluorescence spectrophotometer.

[2] = system: blood-brain barrier permeability; test: Evans blue permeation into the brain after SC79; type: in vivo, BABL/c nude mice
Experimental: FIG. 10: In vivo regulation of increase in the blood-brain barrier permeability and increase in the amount of Evans blue permeated into the brain by SC79. SC79 was injected into tail veins of tumor-bearing animals at an administration dose of 5 mg/kg and 10 mg/kg, respectively. After 24 hours, an Evans blue solution was injected into tail veins at an administration dose of 5 mg/kg. After 4 hours, the intact brain of the nude mice was taken by cardiac perfusion.
FIG. 11: In vivo time-dependent regulation of increase in the blood-brain barrier permeability by SC79. SC79 was injected into tail veins of tumor-bearing animals at an administration dose of 5 mg/kg and 10 mg/kg, respectively. After 0 hour, 0.5 hour, and 24 hours, an Evans blue solution was injected into tail veins at an administration dose of 5 mg/kg. After 4 hours, the intact brain of the nude mice was taken by cardiac perfusion.
(§1) Male BABL/c nude mice (20+2 g) were used as the model animals. SC79 diluted with 0.2% injection grade Tween 80 solution was injected into tail veins at an administration dose of 5 mg/kg, 10 mg/kg. After 24 hours, an Evans blue solution was injected into tail veins at an administration dose of 5 mg/kg. After 4 hours, the intact brain of the nude mice was taken by cardiac perfusion. The distribution intensity of Evans blue in the brain tissue was qualitatively observed with a small animal live imaging instrument.
as §1, with “nude mice (20±2 g) were” for “nude mice (20+2 g) were”, “mg/kg. After 0.5 hour, and after 24 hours,” for “mg/kg. After 24 hours,”

Structure (SMILES): CCOC(=O)C1=C(N)Oc2ccc(Cl)cc2C1C(C#N)C(=O)OCC (stereo not shown) [SC79]
- blood-brain barrier permeability (FITC-dextran in outer chamber) [1]: increase the blood-brain barrier permeability
- amount of Evans blue permeated into the brain ([2]; SC79 5 mg/kg, 10 mg/kg tail vein, Evans blue after 24 hours, vs tumor-bearing control group): increased
- amount of Evans blue permeated into the brain ([2]; SC79 tail vein, Evans blue 0.5 hour after SC79): increased
- amount of Evans blue permeated into the brain ([2]; SC79 tail vein, Evans blue 24 hours after SC79): the highest
